Assay results reported in PubChem BioAssay (NCI).
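In this assay, cells in 96-well plates receive the compound at five concentrations for 48 hours. Endpoints are linearly interpolated between the surrounding concentrations. The concentration for 50% growth inhibition is given as GI50. At the TGI there is no net growth.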 Active and inactive are the calls of the source. No stated cut-off is given here; in the data, active means GI50 below about 0.43 µM; inactive means the rest.

Columns and labels:
Assay in all cases: DTP human tumour cell line panel, 48 h
786-0 renal = system: 786-0 renal
A498 renal = system: A498 renal
A549 NSCLC = system: A549 NSCLC
ACHN renal = system: ACHN renal
BT-549 breast = system: BT-549 breast
CAKI-1 renal = system: CAKI-1 renal
CCRF-CEM leukemia = system: CCRF-CEM leukemia
COLO 205 colon = system: COLO 205 colon
DU-145 prostate = system: DU-145 prostate
EKVX NSCLC = system: EKVX NSCLC
HCC-2998 colon = system: HCC-2998 colon
HCT-116 colon = system: HCT-116 colon
HCT-15 colon = system: HCT-15 colon
HL-60(TB) leukemia = system: HL-60(TB) leukemia
HOP-62 NSCLC = system: HOP-62 NSCLC
HOP-92 NSCLC = system: HOP-92 NSCLC
HS 578T breast = system: HS 578T breast
HT29 colon = system: HT29 colon
IGROV1 ovarian = system: IGROV1 ovarian
K-562 leukemia = system: K-562 leukemia
KM12 colon = system: KM12 colon
LOX IMVI melanoma = system: LOX IMVI melanoma
M14 melanoma = system: M14 melanoma
MALME-3M melanoma = system: MALME-3M melanoma
MCF7 breast = system: MCF7 breast
MDA-MB-231 breast = system: MDA-MB-231 breast
MDA-MB-435 = system: MDA-MB-435
MDA-N = system: MDA-N
MOLT-4 leukemia = system: MOLT-4 leukemia
NCI-H226 lung = system: NCI-H226 lung
NCI-H23 lung = system: NCI-H23 lung
NCI-H460 lung = system: NCI-H460 lung
NCI-H522 lung = system: NCI-H522 lung
NCI/ADR-RES ovarian = system: NCI/ADR-RES ovarian
OVCAR-3 ovarian = system: OVCAR-3 ovarian
OVCAR-4 ovarian = system: OVCAR-4 ovarian
OVCAR-5 ovarian = system: OVCAR-5 ovarian
OVCAR-8 ovarian = system: OVCAR-8 ovarian
PC-3 prostate = system: PC-3 prostate
RPMI-8226 leukemia = system: RPMI-8226 leukemia
RXF 393 renal = system: RXF 393 renal
SF-268 CNS = system: SF-268 CNS
SF-295 CNS = system: SF-295 CNS
SF-539 CNS = system: SF-539 CNS
SK-MEL-2 melanoma = system: SK-MEL-2 melanoma
SK-MEL-28 melanoma = system: SK-MEL-28 melanoma
SK-MEL-5 melanoma = system: SK-MEL-5 melanoma
SK-OV-3 ovarian = system: SK-OV-3 ovarian
SN12C renal = system: SN12C renal
SNB-19 CNS = system: SNB-19 CNS
SNB-75 CNS = system: SNB-75 CNS
SR leukemia = system: SR leukemia
SW-620 colon = system: SW-620 colon
T-47D breast = system: T-47D breast
TK-10 renal = system: TK-10 renal
U251 CNS = system: U251 CNS
UACC-257 melanoma = system: UACC-257 melanoma
UACC-62 melanoma = system: UACC-62 melanoma
UO-31 renal = system: UO-31 renal
DLD-1 colon = system: DLD-1 colon
DMS 273 small cell lung = system: DMS 273 small cell lung
HOP-18 NSCLC = system: HOP-18 NSCLC
KM20L2 colon = system: KM20L2 colon
LXFL 529 NSCLC = system: LXFL 529 NSCLC

Structure (SMILES): C#CCN(Cc1cc2c(=O)[nH]c(C)nc2cc1C)c1ccc(C(=O)N[C@@H](CCc2nn[nH]n2)C(=O)O)c(F)c1
- outcome (786-0 renal): inactive
- outcome (A498 renal): inactive
- outcome (A549 NSCLC): inactive
- outcome (ACHN renal): inactive
- outcome (BT-549 breast): inactive
- outcome (CAKI-1 renal): inactive
- outcome (CCRF-CEM leukemia): inactive
- outcome (COLO 205 colon): inactive
- outcome (DU-145 prostate): inactive
- outcome (EKVX NSCLC): inactive
- outcome (HCC-2998 colon): inactive
- outcome (HCT-116 colon): inactive
- outcome (HCT-15 colon): inactive
- outcome (HL-60(TB) leukemia): inactive
- outcome (HOP-62 NSCLC): inactive
- outcome (HOP-92 NSCLC): inactive
- outcome (HS 578T breast): inactive
- outcome (HT29 colon): inactive
- outcome (IGROV1 ovarian): inactive
- outcome (K-562 leukemia): inactive
- outcome (KM12 colon): inactive
- outcome (LOX IMVI melanoma): inactive
- outcome (M14 melanoma): inactive
- outcome (MALME-3M melanoma): inactive
- outcome (MCF7 breast): inactive
- outcome (MDA-MB-231 breast): inactive
- outcome (MDA-MB-435): inactive
- outcome (MDA-N): inactive
- outcome (MOLT-4 leukemia): inactive
- outcome (NCI-H226 lung): inactive
- outcome (NCI-H23 lung): inactive
- outcome (NCI-H460 lung): inactive
- outcome (NCI-H522 lung): inactive
- outcome (NCI/ADR-RES ovarian): inactive
- outcome (OVCAR-3 ovarian): inactive
- outcome (OVCAR-4 ovarian): inactive
- outcome (OVCAR-5 ovarian): inactive
- outcome (OVCAR-8 ovarian): inactive
- outcome (PC-3 prostate): inactive
- outcome (RPMI-8226 leukemia): inactive
- outcome (RXF 393 renal): inactive
- outcome (SF-268 CNS): inactive
- outcome (SF-295 CNS): inactive
- outcome (SF-539 CNS): inactive
- outcome (SK-MEL-2 melanoma): inactive
- outcome (SK-MEL-28 melanoma): inactive
- outcome (SK-MEL-5 melanoma): inactive
- outcome (SK-OV-3 ovarian): inactive
- outcome (SN12C renal): inactive
- outcome (SNB-19 CNS): inactive
- outcome (SNB-75 CNS): inactive
- outcome (SR leukemia): inactive
- outcome (SW-620 colon): inactive
- outcome (T-47D breast): inactive
- outcome (TK-10 renal): inactive
- outcome (U251 CNS): inactive
- outcome (UACC-257 melanoma): inactive
- outcome (UACC-62 melanoma): inactive
- outcome (UO-31 renal): inactive

Structure (SMILES): C1C[OH+]CCNCC[OH+]CC[OH+]CCN1.O.[Cl-].[Pt+4]
- GI50 (786-0 renal): > 100 µM
- TGI (786-0 renal): > 100 µM
- GI50 (A498 renal): > 100 µM
- TGI (A498 renal): > 100 µM
- GI50 (A549 NSCLC): > 100 µM
- TGI (A549 NSCLC): > 100 µM
- GI50 (ACHN renal): > 100 µM
- TGI (ACHN renal): > 100 µM
- GI50 (CAKI-1 renal): > 100 µM
- TGI (CAKI-1 renal): > 100 µM
- GI50 (CCRF-CEM leukemia): > 100 µM
- TGI (CCRF-CEM leukemia): > 100 µM
- GI50 (COLO 205 colon): > 100 µM
- TGI (COLO 205 colon): > 100 µM
- GI50 (DLD-1 colon): > 100 µM
- TGI (DLD-1 colon): > 100 µM
- GI50 (DMS 273 small cell lung): > 100 µM
- TGI (DMS 273 small cell lung): > 100 µM
- GI50 (HCC-2998 colon): > 100 µM
- TGI (HCC-2998 colon): > 100 µM
- GI50 (HCT-116 colon): > 100 µM
- TGI (HCT-116 colon): > 100 µM
- GI50 (HCT-15 colon): > 100 µM
- TGI (HCT-15 colon): > 100 µM
- GI50 (HL-60(TB) leukemia): > 100 µM
- TGI (HL-60(TB) leukemia): > 100 µM
- GI50 (HOP-18 NSCLC): > 100 µM
- TGI (HOP-18 NSCLC): > 100 µM
- GI50 (HOP-62 NSCLC): > 100 µM
- TGI (HOP-62 NSCLC): > 100 µM
- GI50 (HOP-92 NSCLC): > 10 µM
- TGI (HOP-92 NSCLC): > 10 µM
- GI50 (HT29 colon): > 100 µM
- TGI (HT29 colon): > 100 µM
- GI50 (IGROV1 ovarian): > 100 µM
- TGI (IGROV1 ovarian): > 100 µM
- GI50 (K-562 leukemia): > 100 µM
- TGI (K-562 leukemia): > 100 µM
- GI50 (KM12 colon): > 100 µM
- TGI (KM12 colon): > 100 µM
- GI50 (KM20L2 colon): > 100 µM
- TGI (KM20L2 colon): > 100 µM
- GI50 (LOX IMVI melanoma): > 100 µM
- TGI (LOX IMVI melanoma): > 100 µM
- GI50 (LXFL 529 NSCLC): > 100 µM
- TGI (LXFL 529 NSCLC): > 100 µM
- GI50 (M14 melanoma): > 10 µM
- TGI (M14 melanoma): > 10 µM
- GI50 (MALME-3M melanoma): > 100 µM
- TGI (MALME-3M melanoma): > 100 µM
- GI50 (MOLT-4 leukemia): > 100 µM
- TGI (MOLT-4 leukemia): > 100 µM
- GI50 (NCI-H226 lung): > 100 µM
- TGI (NCI-H226 lung): > 100 µM
- GI50 (NCI-H460 lung): > 100 µM
- TGI (NCI-H460 lung): > 100 µM
- GI50 (OVCAR-3 ovarian): > 100 µM
- TGI (OVCAR-3 ovarian): > 100 µM
- GI50 (OVCAR-4 ovarian): > 100 µM
- TGI (OVCAR-4 ovarian): > 100 µM
- GI50 (OVCAR-8 ovarian): > 100 µM
- TGI (OVCAR-8 ovarian): > 100 µM
- GI50 (RPMI-8226 leukemia): > 100 µM
- TGI (RPMI-8226 leukemia): > 100 µM
- GI50 (SF-268 CNS): > 100 µM
- TGI (SF-268 CNS): > 100 µM
- GI50 (SF-295 CNS): > 100 µM
- TGI (SF-295 CNS): > 100 µM
- GI50 (SF-539 CNS): > 100 µM
- TGI (SF-539 CNS): > 100 µM
- GI50 (SK-MEL-2 melanoma): > 100 µM
- TGI (SK-MEL-2 melanoma): > 100 µM
- GI50 (SK-MEL-28 melanoma): > 100 µM
- TGI (SK-MEL-28 melanoma): > 100 µM
- GI50 (SK-MEL-5 melanoma): > 100 µM
- TGI (SK-MEL-5 melanoma): > 100 µM
- GI50 (SK-OV-3 ovarian): > 100 µM
- TGI (SK-OV-3 ovarian): > 100 µM
- GI50 (SN12C renal): > 100 µM
- TGI (SN12C renal): > 100 µM
- GI50 (SNB-19 CNS): > 100 µM
- TGI (SNB-19 CNS): > 100 µM
- GI50 (SNB-75 CNS): > 100 µM
- TGI (SNB-75 CNS): > 100 µM
- GI50 (SW-620 colon): > 100 µM
- TGI (SW-620 colon): > 100 µM
- GI50 (TK-10 renal): > 100 µM
- TGI (TK-10 renal): > 100 µM
- GI50 (U251 CNS): > 100 µM
- TGI (U251 CNS): > 100 µM
- GI50 (UACC-257 melanoma): > 100 µM
- TGI (UACC-257 melanoma): > 100 µM
- GI50 (UACC-62 melanoma): > 100 µM
- TGI (UACC-62 melanoma): > 100 µM
- GI50 (UO-31 renal): > 100 µM
- TGI (UO-31 renal): > 100 µM
